Experimental data published in US10561736B1, “Apoptosis inhibitor formulations for prevention of hearing loss” (Spiral Therapeutics, Inc., priority 2019, dated 2020).
Entries after “also recorded” stand apart in the source; their conditions may differ. Read-outs that look alike come from different tables or passages of the source.

What was measured:
[1] = test system: noise-induced ABR threshold shift; experiment: noise trauma ABR threshold study (FIG. 6); assay type: in vivo; conditions: TRAUMA+LPT99 group, 10 and 21 days
[2] = plasma concentrations after IT administration of LPT99-CD; assay type: in vivo, rat
Procedure: In a study conducted in female Wistar rats, plasma concentrations of LPT99 were evaluated at 1 hour and 2, 4, 7, and 14 days after IT administration of a single 50 μL dose of 50, 100, or 200 μM LPT99 formulated in a 5% HPβ-cyclodextrin (“CD”) vehicle (LPT99-CD).

[3] = test system: Sprague-Dawley rats; experiment: functional observation battery, IP injection; assay type: in vivo; conditions: rat
Procedure: (§1) A functional observation battery was conducted with LPT99 administered via IP (intraperitoneal) injection in Sprague-Dawley rats. The study was preceded by a non-GLP maximum tolerated dose (MTD) toxicity study, via the same administration and test system, which determined the MTD of LTP99 to be 1000 mg/kg. LPT99 was suspended in vehicle [0.5% w/v methylcellulose and 0.1% v/v TWEEN®80 in Milli-Q water] and administered intraperitoneally to Sprague-Dawley rats as a single dose at the doses of 100 (low—G2/G2TK), 300 (mid—G3/G3TK), and 750 (high—G4/G4TK) mg/kg body weight. The rats in vehicle control groups (G1/G1TK) received the vehicle alone. The dose volume administered was at an equivolume of 10 mL/kg body weight for all groups.
(§2) LPT99 was suspended in vehicle [0.5% w/v methylcellulose and 0.1% v/v TWEEN® 80 in Milli-Q water] and administered intraperitoneally to Sprague-Dawley rats as a single dose at the doses of 100 (low—G2/G2TK), 300 (mid—G3/G3TK), and 750 (high—G4/G4TK) mg/kg body weight. The rats in vehicle control groups (G1/G1TK) received the vehicle alone. The dose volume administered was at an equivolume of 10 mL/kg body weight for all groups.

[4] = non-GLP maximum tolerated dose (MTD) toxicity study, IP; conditions: rat, in vivo, Sprague-Dawley rats
Procedure: as §1
(§3) A GLP acute systemic toxicity study was conducted with LPT99 administered via IP injection in Sprague-Dawley rats. The acute systemic toxicity study was preceded by a non-GLP maximum tolerated dose (MTD) toxicity study, via the same administration and test system, which determined the MTD of LTP99 to be 1000 mg/kg.

[5] = test system: ion channels, including hERG potassium channels; experiment: effects on ion channels in CHO and HEK 293 cells; assay type: cell-based
Excerpt: Torsadogenic refers to the development of torsade de Pointes (TdP) arrythimias.

[6] = metabolic stability in microsomal and S9 hepatic fractions; assay type: in vitro ADME; conditions: after 1 hour
Excerpt: The metabolic profile and stability of LPT99 was characterized in human, dog, rabbit, rat, and mouse microsomal and S9 fractions, and in human cytosolic fractions.

[7] = metabolic profile in hepatic fractions; assay type: in vitro ADME, human, dog, rabbit, rat, and mouse; conditions: phase I biotransformation pathways
Procedure: The metabolic profile and stability of LPT99 was characterized in human, dog, rabbit, rat, and mouse microsomal and S9 fractions, and in human cytosolic fractions. LPT99 was extensively metabolized (>90% metabolized after 1 hour) in microsomal and S9 hepatic fractions in all tested species. Up to nine (9) metabolites were formed through phase I biotransformation pathways. The most abundant metabolites were identified as single hydroxylation, double hydroxylation, and demethylation plus double hydroxylation. […] In the rabbit S9 fraction, the quantity of detected metabolites was less than in the human S9 fraction.

[8] = test system: auditory function (ototoxicity); experiment: non-GLP auditory toxicity after intra-tympanic administration; assay type: in vivo, rat; conditions: for ototoxicity: rat
[9] = GLP acute systemic toxicity study with toxicokinetics, single IP dose; assay type: in vivo; conditions: Sprague-Dawley, plasma, rat
Procedure: as §3, §2
(§4) The main toxicity groups consist of 15 rats/sex/group in G1 and G4 groups and 10 rats/sex/group in G2 and G3 groups. The toxicokinetic groups consisted of 6 males and 6 female rats each for the prevention groups, whereas the vehicle control group had 3 male and 3 female rats.

[10] = test system: Sprague-Dawley rats; experiment: as above; assay type: in vivo; conditions: rat; for dose proportionality of Cmax and AUClast: IP 100 to 750 mg/kg/day
Procedure: as §3, §2, §4

[11] = test system: rats; experiment: GLP auditory safety study after single IT administration; assay type: in vivo, rat
Procedure: Gross observations were recorded, and selected organs were weighed.

[12] = worst-case human plasma concentration estimate; conditions: assumed maximum clinical dose 200 μg, human plasma volume 2400 mL
Procedure: These bioavailability values are similar to those described for other drugs formulated in POLOXAMER® gels and administered IT (Honeder, et al., Audiol. Neurootol. 2014, 19(3), 193-202; Wang, et al., Audiol. Neurootol. 2011, 16(4), 233-41; Yang, et al., Sci. Transl. Med. 2016, 8(356), 356ra120). Assuming a maximum clinical dose of 200 μg LPT99 and an average human plasma volume of 2400 mL (for an average 60-kg individual [typical blood plasma volume in males is ˜39 mL/kg of body weight, and in females ˜40 mL/kg]).

[13] = test system: caspase 3; conditions: cellular model of CisPt-induced apoptosis; IEB Symposium abstracts 2016; cited from earlier work
[14] = test system: HEI-OC1 cells; conditions: cellular model of CisPt-induced apoptosis; IEB Symposium abstracts 2016; cited from earlier work

## COc1ccc2[nH]cc(CCNC(=O)CC3C(=O)N(CCc4ccc(Cl)cc4Cl)CC(=O)N3CCc3cccs3)c2c1 (stereo not shown) [LPT99, 2-(4-(2,4-dichlorophenethyl)-3,6-dioxo-1-(2-(thiophen-2-yl)ethyl)piperazin-2-yl)-N-(2-(5-methoxy-1H-indol-3-yl)ethyl)acetamide]
[1]
  noise-induced ABR Threshold shift: back at basal levels
[2]; 50 μM dose
  plasma concentration at quantitation limit (3.2 nM) as share of administered dose: 0.006%
[2]; 100 μM dose
  plasma concentration at quantitation limit (3.2 nM) as share of administered dose: 0.003%
[2]; 200 μM dose
  plasma concentration at quantitation limit (3.2 nM) as share of administered dose: 0.0016%
[3]; IP 100 mg/kg, Day 1
  neurological parameters: unaffected
[3]; IP 300 and 750 mg/kg, both sexes, day 1, reversible by Day 15
  motor activity scores: lower motor activity scores
[4]
  MTD: 1000 mg/kg
[5]
  torsadogenic / cardiotoxic risk: low torsadogenic risk; also recorded: low cardiotoxic risk
[6]; dog microsomal and S9 hepatic fractions
  metabolized: > 90%
[6]; human microsomal and S9 hepatic fractions
  metabolized: > 90%
[6]; mouse microsomal and S9 hepatic fractions
  metabolized: > 90%
[6]; rabbit microsomal and S9 hepatic fractions
  metabolized: > 90%
[6]; rat microsomal and S9 hepatic fractions
  metabolized: > 90%
[7]
  number of metabolites formed: ≤ 9
[8]; IT, in cyclodextrin, 100 or 200 μM, Day 3
  ABR thresholds in response to click or pure tones (8 to 40 kHz), latencies and amplitudes: did not produce a statistically significant increase in the thresholds
[8]; IT, 100 and 478 μM, follow-up experiment
  ototoxicity: no LPT99 ototoxicity
[8]; IT, 200, 400, and 797 μM
  ototoxicity: no ototoxicity
[9]; IP 100 mg/kg/day, female, read-out: Tmax
  Tmax: 8 h
[9]; IP 100 mg/kg/day, male, read-out: Tmax
  Tmax: 2 h
[9]; both sexes, IP, dose levels other than 100 mg/kg/day, both genders, read-out: time to reach peak plasma concentrations (Tmax)
  Tmax: 24 h
[10]; IP 750 mg/kg, first 7 days, both sex
  body weights or body weight gains: not statistically significantly lower
[10]; IP 750 mg/kg, males days 1-7, females days 1-4, vs control
  food consumption: statistically significant reduction
[10]; IP 750 mg/kg, males, Day 2
  epididymides weight: increase in epididymides weight
[10]; IP 750 mg/kg, males, Day 15
  neutrophil count: minimal increase in neutrophil count
[10]; female
  dose proportionality of Cmax and AUClast: approximate dose proportional increase
[10]; male
  dose proportionality of Cmax and AUClast: More than dose proportional increase
[10]; IP 300 and 750 mg/kg, males and females, Day 2
  liver weight: increase in liver weight
[10]; IP, Day 2 and Day 15, parenchyma not affected
  inflammatory response, localisation: restricted to the mesentery and surface of the visceral organs in abdominal cavity
[10]; IP, Days 2 and 15
  coagulation parameters: not affected
  urinalysis parameters: unaffected
[10]; IP, all dose groups, Day 2
  neutrophil count: increased neutrophil count
[10]; IP, all test item injected groups, Day 2
  mediastinal lymph node, microscopic finding: necrosis/inflammation of lymph node
[10]; IP, all tested dose levels
  exposure in females relative to males: 1.5-5.5 fold
[10]; IP, males
  clinical chemistry parameters: no test item related changes
[10]; single IP 100, 300, 750 mg/kg
  general tolerability: generally safe and well tolerated
  mortality: No mortality was observed
[10]; single IP, all tested dose groups
  clinical signs: no clinical signs observed
[11]; rat, 200, 400, or 797 μM, 30 μL per ear
  tolerability of single IT dose: generally well tolerated
[11]; rat, IT, 30 μl of 797 μM
  mass of injected LPT99 at the no observed adverse effect level (NOAEL): 15 µg
[11]; rat, in vivo
  auditory brainstem response (hearing loss): no reliable evidence of test-article-related hearing loss
  cytocochleogram (hair cell loss): no reliable evidence of test-article-related hair cell loss
  otoscopic examination of the tympanic membranes (erythema, edema, wounds): no statistically significant changes in erythema, edema, or wounds
[11]; rat, single bilateral IT 30 μL per ear, 14-day study
  mortalities, clinical abnormalities, body weight, food intake, clinical pathologies: no LPT99- or gentamicin-related mortalities
[12]
  plasma LPT99 concentration if IT dose were 100% bioavailable: 0.066 µM
[13]
  caspase-3 activation: reduced caspase-3 activation
[14]
  cell viability: improved cell viability
